Results: patent US7442240B2, “Alkoxylpropylisothiazolinone and preparation method and use thereof” (Ocean University of China, priority 2004, dated 2008)

Tests used:
saccharomyces cerevisiae = assay: lowest bacteriostasis concentration, tube double dilution method; format: cell-based; conditions: 24 hours, 37° C.
Method: (§1) The lowest bacteriostasis concentration of the six kinds of the alkoxylpropylisothiazolinone of the present invention is measured through the tube double dilution method. In a Φ18×180 mm tube, 5 ml aseptic culture medium was added, then 50 μl bacteria suspended liquid of coliform was injected to prepare culture solution of beef extract peptone having bacteria concentration of 10^7 cfu/ml, then 50 μl tetrahydrofuran solution containing 4,5-dichloro-2-isopropoxypropyl-4-isothiazolin-3-one with the concentration of 2 μg/ml, 4 μg/ml, 8 μg/ml, 16 μg/ml, 32 μg/ml were added respectively. After cultured for 24 hours under a constant temperature of 37° C., the lowest bacteriostasis concentration of 4,5-dichloro-2-isopropoxypropyl-4-isothiazolin-3-one against coliform bacteria was measured. The result is 8 μg/ml (the cfu is a colong forming unit, 1 cfu refer to one single colong formed on the agar plate after being cultured).
(§2) When the coliform bacteria of the present invention is replaced with saccharomyces cerevisiae or staphylococcus aureus, and the 4,5-dichloro-2-isopropoxypropyl-4-isothiazolin-3-one is replaced with 4,5-dichloro-2-methoxy-propyl-4-isothiazolin-3-one, 4,5-dichloro-2-ethoxypropyl-4-isothiazolin-3-one, 4,5-dichloro-2-butoxypropyl-4-isothiazolin-3-one, 4,5-dichloro-2-methoxyethoxypropyl-4-isothiazolin-3-one, or 4,5-dichloro-2-chlorophenoxyethoxypropyl-4-isothiazolin-3-one, a considerable experimental results are also received, which are shown in the following table.

staphylococcus aureus = assay: as above; format: cell-based; conditions: 24 hours, 37° C.
Method: as §1, §2

coliform bacteria = assay: as above; format: cell-based; conditions: 10^7 cfu/ml, 24 hours, 37° C.
Method: as §1

heterotrophic bacteria = assay: sterilization test in industrial cooling (circulating) water system; conditions: for control and sterilization of microorganism in industry cooling water (in words): industrial cooling water; for the amount of the heterotrophic bacteria, virtual result / the rate of sterilization: 50 mg/L medicament
Excerpt: The compound of the present invention may be used to control and sterilize alga, fungi and bacteria in the industrial cooling water system. First, chlorine was stopped adding into the circulating water system for 3 days before administration. The total amount of the heterotrophic bacteria in the circulating water was raised, and then the 4,5-dichloro-2-methoxyethoxypropyl-4-isothiazolin-3-one was thrown in, while the discharge of the water was stopped. The amount of the heterotrophic bacteria in water and the sterilization rate was measured at 4 hours, 12 hours, 24 hours, 36 hours after the medicament was added.

leaf spot of beet = assay: drug action and field test against leaf spot of beet; format: in vivo
Excerpt: Otherwise, it has also a good prevent function to the apple ring rot, tomato gray mold and cotton soreshin. For example, when the 4,5-dichloro-2-isopropoxypropyl-4-isothiazolin-3-one is used as bactericide, it is merely required 39 g pure medicament per mu ( 1/15 of a hectare) with the concentration of 250 ppm to control the leaf spot of bee, and the efficiency of the prevention and cure is up to 75.0%.

With CC(C)OCCCn1sc(Cl)c(Cl)c1=O [4,5-dichloro-2-isopropoxypropyl-4-isothiazolin-3-one] as the compound, how does the lowest bacteriostasis concentration (saccharomyces cerevisiae) read?
Its lowest bacteriostasis concentration is 8 µg/mL.

And the lowest bacteriostasis concentration (staphylococcus aureus)?
The lowest bacteriostasis concentration was 16 µg/mL.

What about the lowest bacteriostasis concentration (coliform bacteria) of the same compound?
Its lowest bacteriostasis concentration is 8 µg/mL.

And the “control and sterilization of microorganism in industry cooling water (in words)” value (heterotrophic bacteria)?
The value was “controlled and sterilized effectively”.

And the “effect of the prevention and cure (in words)” value (shortened to “effect”) (leaf spot of beet)?
The value was “considerable effect of the prevention and cure”.

What about the “efficiency of the prevention and cure” value (leaf spot of beet; 39 g pure medicament per mu, 250 ppm) of the same compound?
The value was “up to 75.0%”.

COCCOCCCn1sc(Cl)c(Cl)c1=O [4,5-dichloro-2-methoxyethoxypropyl-4-isothiazolin-3-one] was tested. Which lowest bacteriostasis concentration (saccharomyces cerevisiae) did it give?
The lowest bacteriostasis concentration was 16 µg/mL.

What about the lowest bacteriostasis concentration (staphylococcus aureus) of the same compound?
The lowest bacteriostasis concentration was 16 µg/mL.

What about the lowest bacteriostasis concentration (coliform bacteria) of the same compound?
The lowest bacteriostasis concentration was 16 µg/mL.

And the “the amount of the heterotrophic bacteria, virtual result” value (“the amount” for short) (heterotrophic bacteria; 4 h after addition)?
The value was 2.0 × 10^5 number/mL.

What about the “the rate of sterilization” value (heterotrophic bacteria; 4 h after addition) of the same compound?
The value was 99.33%.

And the “the amount” value (heterotrophic bacteria; 12 h after addition)?
Its value is 4.0 × 10^4 number/mL.

And the “the rate of sterilization” value (heterotrophic bacteria; 12 h after addition)?
The value was 99.87%.

What about the “the amount” value (heterotrophic bacteria; 24 h after addition) of the same compound?
Its value is 3.0 × 10^4 number/mL.

And the “the rate of sterilization” value (heterotrophic bacteria; 24 h after addition)?
Its value is 99.90%.

What about the “the amount” value (heterotrophic bacteria; 36 h after addition) of the same compound?
The value was 3.3 × 10^4 number/mL.

What about the “the rate of sterilization” value (heterotrophic bacteria; 36 h after addition) of the same compound?
Its value is 99.89%.

What about the “effect” value (leaf spot of beet) of the same compound?
The value was “considerable effect of the prevention and cure”.

How did the lowest bacteriostasis concentration (saccharomyces cerevisiae) turn out when CCOCCCn1sc(Cl)c(Cl)c1=O [4,5-dichloro-2-ethoxypropyl-4-isothiazolin-3-one] was run?
Its lowest bacteriostasis concentration is 8 µg/mL.

What about the lowest bacteriostasis concentration (staphylococcus aureus) of the same compound?
Its lowest bacteriostasis concentration is 16 µg/mL.

What about the lowest bacteriostasis concentration (coliform bacteria) of the same compound?
Its lowest bacteriostasis concentration is 4 µg/mL.

And the “control and sterilization of microorganism in industry cooling water (in words)” value (heterotrophic bacteria)?
The value was “controlled and sterilized effectively”.

What about the “effect” value (leaf spot of beet) of the same compound?
The value was “considerable effect of the prevention and cure”.

How did the lowest bacteriostasis concentration (saccharomyces cerevisiae) turn out when O=c1c(Cl)c(Cl)sn1CCCOCCOc1ccc(Cl)cc1 [4,5-dichloro-2-chlorophenoxyethoxypropyl-4-isothiazolin-3-one] was run?
Its lowest bacteriostasis concentration is 8 µg/mL.

What about the lowest bacteriostasis concentration (staphylococcus aureus) of the same compound?
Its lowest bacteriostasis concentration is 16 µg/mL.

What about the lowest bacteriostasis concentration (coliform bacteria) of the same compound?
The lowest bacteriostasis concentration was 8 µg/mL.

Which results are given for COCCCn1sc(Cl)c(Cl)c1=O?
lowest bacteriostasis concentration (saccharomyces cerevisiae): 16 µg/mL; lowest bacteriostasis concentration (staphylococcus aureus): 32 µg/mL; lowest bacteriostasis concentration (coliform bacteria): 4 µg/mL; control and sterilization of microorganism in industry cooling water (in words) (heterotrophic bacteria): controlled and sterilized effectively

What does the source list for CCCCOCCCn1sc(Cl)c(Cl)c1=O?
lowest bacteriostasis concentration (saccharomyces cerevisiae): 4 µg/mL; lowest bacteriostasis concentration (staphylococcus aureus): 8 µg/mL; lowest bacteriostasis concentration (coliform bacteria): 4 µg/mL; control and sterilization of microorganism in industry cooling water (in words) (heterotrophic bacteria): controlled and sterilized effectively

For COC(COC(C)Cn1sc(Cl)c(Cl)c1=O)OC (centres unmarked) [4,5-dichloro-2-dimethoxyethoxypropyl-4-isothiazolin-3-one], which “effect” value (leaf spot of beet) is on record?
Its value is “considerable effect of the prevention and cure”.
